Laboratory results as given in patent publication US8748422B2, “Pharmaceutical compositions containing quinazoline derivatives for treating as serotonin receptor antagonist” (Korea Institute of Science and Technology, priority 2007, dated 2014).

Target: T1, serotonin 5-HT3A receptor (Homo sapiens, UniProt P46098)
T1 sequence (P46098 24-478): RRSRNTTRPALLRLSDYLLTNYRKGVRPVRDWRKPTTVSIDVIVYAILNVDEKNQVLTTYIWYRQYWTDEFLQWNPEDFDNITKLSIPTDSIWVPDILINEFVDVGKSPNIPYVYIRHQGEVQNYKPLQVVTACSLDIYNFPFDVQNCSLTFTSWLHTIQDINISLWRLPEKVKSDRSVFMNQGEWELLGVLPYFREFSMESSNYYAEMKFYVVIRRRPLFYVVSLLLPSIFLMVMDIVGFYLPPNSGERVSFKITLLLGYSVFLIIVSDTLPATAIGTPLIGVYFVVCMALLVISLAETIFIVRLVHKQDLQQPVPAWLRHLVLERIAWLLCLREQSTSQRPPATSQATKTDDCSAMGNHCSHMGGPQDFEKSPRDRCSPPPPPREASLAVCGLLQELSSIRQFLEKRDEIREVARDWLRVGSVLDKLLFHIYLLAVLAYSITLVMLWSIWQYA
Experiment: Assay for 5-HT3A receptor: two-electrode voltage clamp in Xenopus oocytes, inhibition of 5-HT-induced inward current
Type: cell-based
Conditions: 5-HT3A receptor expressed in Xenopus laevis oocytes; for nH (Hill coefficient) / inhibition: from concentration-response curves; for inhibition / IC50: inward current induced by 5-HT (1 μM); for inhibition: read-out: Vmax (maximum inhibition value); for IC50: test concentrations 0.003-100 μM, read-out: IC50 (50% inhibitory concentration)

SMILES | nH (Hill coefficient) | inhibition [%] | IC50 [nM]
O=C(NCCN1CCCC1)c1ccc2c(=O)n(Cc3ccc(Cl)cc3)c(=O)[nH]c2c1 [Compound 1, 3-(4-Chloro-benzyl)-2,4-dioxo-1,2,3,4-tetrahydro-quinazoline-7-carboxylic acid (2-pyrrolidine-1-yl-ethyl)-amide] | 0.9 ± 0.1 | 103 ± 12.8 | 7500 ± 2500
O=C(NCCN1CCCCC1)c1ccc2c(=O)n(-c3ccc(F)cc3)c(=O)[nH]c2c1 [Compound 2, 3-(4-Fluoro-phenyl)-2,4-dioxo-1,2,3,4-tetrahydro-quinazoline-7-carboxylic acid (2-piperidine-1-yl-ethyl)-amide] | 0.9 ± 0.1 | 108 ± 6 | 1900 ± 400
COc1ccc(-n2c(=O)[nH]c3cc(C(=O)NCCN4CCCCC4)ccc3c2=O)cc1 [Compound 3, 3-(4-Methoxy-phenyl)-2,4-dioxo-1,2,3,4-tetrahydro-quinazoline-7-carboxylic acid (2-piperidine-1-yl-ethyl)-amide] | 1.4 ± 0.2 | 101 ± 3.6 | 1600 ± 200
O=C(NCCN1CCCCC1)c1ccc2c(=O)n(Cc3ccccc3F)c(=O)[nH]c2c1 [Compound 4, 3-(2-Fluoro-benzyl)-2,4-dioxo-1,2,3,4-tetrahydro-quinazoline-7-carboxylic acid (2-piperidine-1-yl-ethyl)-amide] | 1.4 ± 0.4 | 100 ± 9.6 | 2100 ± 600
O=C(NCCN1CCCCC1)c1ccc2c(=O)n(Cc3cccc(F)c3)c(=O)[nH]c2c1 [Compound 5, 3-(3-Fluoro-benzyl)-2,4-dioxo-1,2,3,4-tetrahydro-quinazoline-7-carboxylic acid (2-piperidine-1-yl-ethyl)-amide] | 1.0 ± 0.2 | 108 ± 11.5 | 2400 ± 800
O=C(NCCN1CCCCC1)c1ccc2c(=O)n(Cc3ccc(F)cc3)c(=O)[nH]c2c1 [Compound 6, 3-(4-Fluoro-benzyl)-2,4-dioxo-1,2,3,4-tetrahydro-quinazoline-7-carboxylic acid (2-piperidine-1-yl-ethyl)-amide] | 1.0 ± 0.2 | 105 ± 7.5 | 1900 ± 400
COc1ccccc1Cn1c(=O)[nH]c2cc(C(=O)NCCN3CCCCC3)ccc2c1=O [Compound 7, 3-(2-Methoxy-benzyl)-2,4-dioxo-1,2,3,4-tetrahydro-quinazoline-7-carboxylic acid (2-piperidine-1-yl-ethyl)-amide] | 1.1 ± 0.2 | 103 ± 5.1 | 1400 ± 200
COc1cccc(Cn2c(=O)[nH]c3cc(C(=O)NCCN4CCCCC4)ccc3c2=O)c1 [Compound 8, 3-(3-Methoxybenzyl)-2,4-dioxo-1,2,3,4-tetrahydro-quinazoline-7-carboxylic acid (2-piperidine-1-yl-ethyl)-amide] | 1.3 ± 0.3 | 107 ± 8.5 | 2700 ± 600
CN1[C@@H]2CC[C@H]1C[C@@H](OC(=O)c1cc(Cl)cc(Cl)c1)C2 [MDL72222, reference compound] | 1.25 ± 0.2 |  | 

Next, values leading:

nH (Hill coefficient) | inhibition [%] | IC50 [nM] | SMILES
1.7 ± 0.2 | 96.4 ± 2.9 | 800 ± 100 | COc1ccc(Cn2c(=O)[nH]c3cc(C(=O)NCCN4CCCCC4)ccc3c2=O)cc1 [Compound 9, 3-(4-Methoxybenzyl)-2,4-dioxo-1,2,3,4-tetrahydro-quinazoline-7-carboxylic acid (2-piperidine-1-yl-ethyl)-amide]
1.1 ± 0.1 | 98.8 ± 4.2 | 2000 ± 300 | O=C(NCCN1CCCCC1)c1ccc2c(=O)n(C3CCCCC3)c(=O)[nH]c2c1 [Compound 10, 3-Cyclohexyl-2,4-dioxo-1,2,3,4-tetrahydro-quinazoline-7-carboxylic acid (2-piperidine-1-yl-ethyl)-amide]
1.3 ± 0.1 | 104 ± 3.6 | 2200 ± 200 | CCCn1c(=O)[nH]c2cc(C(=O)NCCN3CCCCC3)ccc2c1=O [Compound 11, 2,4-Dioxo-3-propyl-1,2,3,4-tetrahydro-quinazoline-7-carboxylic acid (2-piperidine-1-yl-ethyl)-amide]
1.4 ± 0.1 | 103 ± 3.3 | 2200 ± 200 | Cn1c(=O)[nH]c2cc(C(=O)NCCN3CCCCC3)ccc2c1=O [Compound 12, 3-Methyl-2,4-dioxo-1,2,3,4-tetrahydro-quinazoline-7-carboxylic acid (2-piperidine-1-yl-ethyl)-amide]
 | 96 ± 3.9 |  | O=C(NCCN1CCCCC1)c1ccc2c(=O)n(Cc3ccccc3Cl)c(=O)[nH]c2c1 [Compound 13, (2-Chloro-benzyl)-2,4-dioxo-1,2,3,4-tetrahydro-quinazoline-7-carboxylic acid (2-piperidine-1-yl-ethyl)-amide]
1.2 ± 0.2 | 106 ± 2.5 | 3300 ± 500 | O=C(NCCN1CCCCC1)c1ccc2c(=O)n(Cc3ccc(Cl)cc3)c(=O)[nH]c2c1 [Compound 14, 3-(4-Chloro-benzyl)-2,4-dioxo-1,2,3,4-tetrahydro-quinazoline-7-carboxylic acid (2-piperidine-1-yl-ethyl)-amide]
1.2 ± 0.1 | 104 ± 2.5 | 2800 ± 200 | CC1CCCCN1CCNC(=O)c1ccc2c(=O)n(Cc3ccc(Cl)cc3)c(=O)[nH]c2c1 (centres unmarked) [Compound 15, 3-(4-Chloro-benzyl)-2,4-dioxo-1,2,3,4-tetrahydro-quinazoline-7-carboxylic acid (2-(2-methylpiperidine-1-yl)ethyl)-amide]
5.3 ± 1.5 | 52.5 ± 0.6 | 1300 ± 100 | O=C(NCCCN1CCOCC1)c1ccc2c(=O)n(Cc3ccc(Cl)cc3)c(=O)[nH]c2c1 [Compound 16, 3-(4-Chloro-benzyl)-2,4-dioxo-1,2,3,4-tetrahydro-quinazoline-7-carboxylic acid (3-morpholine-4-yl-propyl)-amide]
1.4 ± 0.1 | 99.5 ± 1.6 | 4800 ± 200 | CCC1CCCCN1CCCNC(=O)c1ccc2c(=O)n(Cc3ccc(Cl)cc3)c(=O)[nH]c2c1 (centres unmarked) [Compound 18, 3-(4-Chloro-benzyl)-2,4-dioxo-1,2,3,4-tetrahydro-quinazoline-7-carboxylic acid [3-(2-ethyl-piperidine-1-yl)-propyl]-amide]
1.5 ± 0.2 | 98.2 ± 4.5 | 5700 ± 600 | O=C(NCCCN1CCCCC1)c1ccc2c(=O)n(Cc3ccc(Cl)cc3)c(=O)[nH]c2c1 [Compound 19, 3-(4-Chloro-benzyl)-2,4-dioxo-1,2,3,4-tetrahydro-quinazoline-7-carboxylic acid (3-piperidine-1-yl-propyl)-amide]
